What all share (assay): DTP human tumour cell line panel, 48 h
For assay [1], the system named is A549 NSCLC.
In assay [2] the test system is MDA-MB-231 breast.
Assay [3] deals with HCT-116 colon.
Assay [4] relates to RXF 393 renal.
Assay [5] deals with HS 578T breast.
For assay [6], the system named is CAKI-1 renal.
Assay [7] deals with K-562 leukemia.
Assay [8] deals with SNB-75 CNS.
Assay [9] concerns SF-268 CNS.
Assay [10] has as its system SR leukemia.

Values joined by “and” are separate entries in the source; they are usually repeats but may differ in a detail not shown here. Equal entries are not always repeated.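 These data come from cells grown in 96-well plates and exposed to compound for 48 hours at five concentrations. Abbreviation: GI50, concentration required for 50% inhibition of growth. TGI marks complete inhibition of growth.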

Broadly, the GI50 is the concentration that inhibits growth by half. For orientation: TGI means the concentration giving total growth inhibition. Regarding `COc1cc2c3c(n(CCCN4CCN(CCO)CC4)c(=O)c2cc1OC)-c1cc2c(cc1C3=O)OCO2`, the GI50 was 4.23 µM in assay [1]; 4.97 µM in assay [2]; 1.14 µM in assay [3]; 13.4 µM in [4]; greater than 100 µM in [5]; 6.53 µM in assay [6]. Besides, the figures for the GI50 in assay [7], in assay [8] and in assay [9] were 5.95 µM, 9.87 µM and 5.23 µM, respectively. Moreover, the TGI is 20.7 µM in [1]; 18.3 µM in assay [2]; 7.79 µM in [3]; 30.9 µM in assay [4]; greater than 100 µM in assay [5]; 42.2 µM in [6]. In addition, the concentration for total growth inhibition (TGI) is 29.4 µM in assay [7], 31.7 µM in assay [8], greater than 100 µM in assay [9] and 1.34 µM in assay [10].
With `COC(=O)CCc1c(/C=C2\N=C(c3ccc[nH]3)C=C2OC)[nH]c(C)c1C(=O)OCc1ccccc1`, the GI50 in assay [1] is 0.945 µM; in assay [2] it was 0.17 µM; in assay [3], 0.122 µM; in [4] it was 0.549 µM; in assay [5], 0.491 µM; in assay [6] it was 0.272 µM. In addition, the GI50 in [7] is 0.252 µM; in assay [8] it was 0.315 µM; in assay [9], 0.514 µM; in assay [10] it was 0.185 µM. Moreover, the concentration for total growth inhibition (TGI) turned out to be 38.7 µM in assay [1]; 1.57 µM in assay [2]; 1.07 µM in assay [3]; 3.38 µM in assay [4]; 3.78 µM in assay [5]; 1.59 µM in [6]. Moreover, the concentration for total growth inhibition (TGI) is 3.39 µM in assay [7], 1.8 µM in [8], 8.23 µM in assay [9] and 1.72 µM in assay [10].
With `NC(=S)N=Nc1c(O)[nH]c2ccccc12`, the GI50 in assay [1] is 274 µM; in [2] it was 158 µM; in [3], 152 µM; in [4] it was 134 µM; in [5] it was 195 µM; in [6] it was 32 µM and 73.4 µM. In addition, the GI50 in assay [8] was 91.7 µM and 174 µM; in assay [9], 189 µM; in assay [10] it was 98.2 µM. Moreover, the concentration for total growth inhibition (TGI) in assay [1] came to 897 µM; in assay [2] it was 385 µM; in assay [3] it was 297 µM; in assay [4] it was 262 µM; in assay [5], 691 µM; in assay [6] it was 251 µM. Moreover, the TGI is greater than 1000 µM in assay [7], 419 µM in assay [8] and 989 µM in [9].
Consider `CC(C)CC1NC(=O)C(C(C)C)NC(=O)CC(C)COC(=O)C(CC(C)C)N(C)C(=O)C(C(C)C)NC(=O)C(C(C)C)OC1=O` (stereo not given), for which the TGI is greater than 50 µM in assay [1]; greater than 50 µM in [2]; greater than 50 µM in [3]; 35.2 µM in assay [4]; greater than 50 µM in [5]; greater than 50 µM in assay [6]. Besides, the total growth inhibition concentration (TGI) in [7] was greater than 50 µM; in assay [8], 30.2 µM; in assay [9], greater than 50 µM; in [10] it was greater than 50 µM.
With `CCC(=O)Oc1ccc(/C=N/NC(N)=S)nc1`, the GI50 was 35.4 µM in assay [1]; 6.79 µM in [2]; 4.46 µM in assay [3]; 2.93 µM in assay [4]; 30.9 µM in assay [5]; 4.97 µM in assay [6]. For the same compound, the GI50 in [7] was 5.05 µM; in assay [8], 6.13 µM; in [9], 3.46 µM; in assay [10] it was 1.34 µM. For the same compound, the concentration for total growth inhibition (TGI) in [1], in [2], in assay [3], in [4], in [5] and in assay [6] was greater than 100 µM in each case. Besides, the TGI in [7], in assay [8], in [9] and in [10] was greater than 100 µM each time.
Turning to `COc1ccc2c(c1)NC(=O)CN2c1nc(C)nc2ccccc12`, the GI50 is 0.000588 µM in [1]; 0.000914 µM in assay [2]; 0.000369 µM in assay [3]; 0.000601 µM in [5]; 0.000497 µM in assay [6]; 0.000359 µM in assay [7]. Also, the results for the GI50 in assay [8] and in assay [9] were 0.00036 µM and 0.000788 µM, respectively. Also, the TGI in assay [1], in [2], in assay [3], in assay [4], in assay [5] and in [6] was greater than 100 µM each time. The concentration for total growth inhibition (TGI) in assay [7], in assay [8], in assay [9] and in assay [10] was greater than 100 µM in each case.
Turning to `O=S1(=O)C=C(c2ccccc2)C(c2ccccc2)=C1`, the GI50 in assay [1] is 2.13 µM; in [2], 1.62 µM; in assay [3], 1.09 µM; in assay [4], 1.62 µM; in assay [5], 1.18 µM; in [6] it was 1.16 µM. For the same compound, the GI50 in [7] is 1.83 µM; in [8] it was 1.33 µM; in assay [9] it was 1.49 µM; in assay [10], 2.8 µM. Also, the total growth inhibition concentration (TGI) was found to be 5.11 µM in assay [1]; 3.09 µM in assay [2]; 2.28 µM in assay [3]; 3 µM in assay [4]; 3.5 µM in assay [5]; 2.63 µM in assay [6]. In addition, the concentration for total growth inhibition (TGI) in assay [7] is greater than 100 µM; in assay [8], 2.6 µM; in assay [9], 3.38 µM; in assay [10] it was 13.9 µM.
Regarding `O=[N+]([O-])c1ccc2nc(=S)[nH]n2c1`, the TGI in [1], in [2], in [3], in assay [4], in assay [5] and in [6] was greater than 100 µM in each case. Further, the TGI in assay [7], in assay [8], in assay [9] and in assay [10] was greater than 100 µM each time.
